From patent publication US20250129087A1, “SALT CRYSTALS” (INTRA-CELLULAR THERAPIES, INC., priority 2022, published 2025) come the findings set out here.

One data set is described as follows: pH of the filtrated solutions (pH indication paper). Type of data set: physicochemical. To be noted: pH of the filtrated solution. The procedure:
Samples are filtered and diluted (in a mixture of acetonitrile/water (1/1)) for LC analysis. Solubilities are calculated with the use of a calibration line. Furthermore, the pH values of the filtrated solutions are determined using pH indication paper.
As for `CN1C(=O)c2c(nn(Cc3ccc(-c4cccc(F)n4)cc3)c2Nc2ccccc2)N2C1=N[C@@H]1CCC[C@@H]12.O=C(O)c1ccccc1O` [Salicylate Salt 1], the pH was determined as 5. As for `CN1C(=O)c2c(nn(Cc3ccc(-c4cccc(F)n4)cc3)c2Nc2ccccc2)N2C1=N[C@@H]1CCC[C@@H]12.O=S(=O)(O)c1ccccc1` [Besylate Salt 1], the pH amounted to 1. `CN1C(=O)c2c(nn(Cc3ccc(-c4cccc(F)n4)cc3)c2Nc2ccccc2)N2C1=N[C@@H]1CCC[C@@H]12.O=C(O)c1ccc2ccccc2c1O` [Xinafoate Salt 1] displayed a pH of 7. As for `CN1C(=O)c2c(nn(Cc3ccc(-c4cccc(F)n4)cc3)c2Nc2ccccc2)N2C1=N[C@@H]1CCC[C@@H]12.O=C(O)C(O)C(O)C(=O)O` [Tartrate Salt 1], the pH is listed as 4-5. For the compound `CN1C(=O)c2c(nn(Cc3ccc(-c4cccc(F)n4)cc3)c2Nc2ccccc2)N2C1=N[C@@H]1CCC[C@@H]12.O=C(O)[C@@H](O)[C@H](O)[C@H](O)[C@@H](O)C(=O)O` [Galactarate Salt 1], the pH is given as 5. As for `CN1C(=O)c2c(nn(Cc3ccc(-c4cccc(F)n4)cc3)c2Nc2ccccc2)N2C1=N[C@@H]1CCC[C@@H]12.O=C(O)C(O)c1ccccc1` [Mandelate Salt 2], the pH amounted to 4. As to `CCCCCC(=O)O.CN1C(=O)c2c(nn(Cc3ccc(-c4cccc(F)n4)cc3)c2Nc2ccccc2)N2C1=N[C@@H]1CCC[C@@H]12` [Caproate Salt 1], the pH amounted to 5. Still for that read-out and setting: to `CN1C(=O)c2c(nn(Cc3ccc(-c4cccc(F)n4)cc3)c2Nc2ccccc2)N2C1=N[C@@H]1CCC[C@@H]12.O=C(O)c1ccc2ccccc2c1O` [Xinafoate Salt 3] belongs 7; to `CN1C(=O)c2c(nn(Cc3ccc(-c4cccc(F)n4)cc3)c2Nc2ccccc2)N2C1=N[C@@H]1CCC[C@@H]12.O=C(O)C(=O)O` [Oxalate Salt 3], 1. `CCCCCCCCCCCC(=O)O.CN1C(=O)c2c(nn(Cc3ccc(-c4cccc(F)n4)cc3)c2Nc2ccccc2)N2C1=N[C@@H]1CCC[C@@H]12` [Laurate Salt 1] showed a pH of 5.

The compound `CN1C(=O)c2c(nn(Cc3ccc(-c4cccc(F)n4)cc3)c2Nc2ccccc2)N2C1=N[C@@H]1CCC[C@@H]12.Cc1ccc(S(=O)(=O)O)cc1` [Tosylate Salt 1] had a pH of 1. The compound `CCS(=O)(=O)O.CN1C(=O)c2c(nn(Cc3ccc(-c4cccc(F)n4)cc3)c2Nc2ccccc2)N2C1=N[C@@H]1CCC[C@@H]12` [Esylate Salt 1] yielded a pH of 5. Still for that read-out and setting: with `CN1C(=O)c2c(nn(Cc3ccc(-c4cccc(F)n4)cc3)c2Nc2ccccc2)N2C1=N[C@@H]1CCC[C@@H]12.Cl` [HCl Salt 4] the figure was 4. `CN1C(=O)c2c(nn(Cc3ccc(-c4cccc(F)n4)cc3)c2Nc2ccccc2)N2C1=N[C@@H]1CCC[C@@H]12.O=C(O)C[C@H](O)C(=O)O` [Malate Salt 1]: the pH stood at 4. On to `CC1(C)C2CCC1(CS(=O)(=O)O)C(=O)C2.CN1C(=O)c2c(nn(Cc3ccc(-c4cccc(F)n4)cc3)c2Nc2ccccc2)N2C1=N[C@@H]1CCC[C@@H]12` [Camsylate Salt 1], for which the pH turned out to be 1. As for `CC(O)C(=O)O.CN1C(=O)c2c(nn(Cc3ccc(-c4cccc(F)n4)cc3)c2Nc2ccccc2)N2C1=N[C@@H]1CCC[C@@H]12` [Lactate Salt 1], the pH is on record as 4-5.

`CN1C(=O)c2c(nn(Cc3ccc(-c4cccc(F)n4)cc3)c2Nc2ccccc2)N2C1=N[C@@H]1CCC[C@@H]12.O=C(O)C(=O)O` [Oxalate Salt 1] showed a pH of 4. As to `CN1C(=O)c2c(nn(Cc3ccc(-c4cccc(F)n4)cc3)c2Nc2ccccc2)N2C1=N[C@@H]1CCC[C@@H]12.Cl` [HCl Salt 3], the pH is 3. For the compound `CN1C(=O)c2c(nn(Cc3ccc(-c4cccc(F)n4)cc3)c2Nc2ccccc2)N2C1=N[C@@H]1CCC[C@@H]12.O=C(O)CCC(=O)C(=O)O` [Oxo-glutarate Salt 1], the pH was 3. In the case of `CN1C(=O)c2c(nn(Cc3ccc(-c4cccc(F)n4)cc3)c2Nc2ccccc2)N2C1=N[C@@H]1CCC[C@@H]12.O=S(=O)(O)O` [Sulfate Salt 1], the pH is on record as 1. Still for that read-out and setting: with `CN1C(=O)c2c(nn(Cc3ccc(-c4cccc(F)n4)cc3)c2Nc2ccccc2)N2C1=N[C@@H]1CCC[C@@H]12.O=C(O)c1cc(=O)[nH]c(=O)[nH]1.O=C(O)c1cc(=O)[nH]c(=O)[nH]1` [Orotate Salt 1] the figure was 5. `CN1C(=O)c2c(nn(Cc3ccc(-c4cccc(F)n4)cc3)c2Nc2ccccc2)N2C1=N[C@@H]1CCC[C@@H]12.O=C(O)CCCCC(=O)O` [Adipate Salt 1] showed a pH of 4. Compound `CN1C(=O)c2c(nn(Cc3ccc(-c4cccc(F)n4)cc3)c2Nc2ccccc2)N2C1=N[C@@H]1CCC[C@@H]12.O=C(O)C(=O)O` [Oxalate Salt 2] registered a pH of 1. For `CN1C(=O)c2c(nn(Cc3ccc(-c4cccc(F)n4)cc3)c2Nc2ccccc2)N2C1=N[C@@H]1CCC[C@@H]12.O=C(O)C(F)(F)F` [Trifluoroacetate Salt 1], the pH amounted to 7. Take `CCCCCCCC(=O)O.CN1C(=O)c2c(nn(Cc3ccc(-c4cccc(F)n4)cc3)c2Nc2ccccc2)N2C1=N[C@@H]1CCC[C@@H]12` [Caprylate Salt 1]: the pH amounted to 5. Same read-out and setting: with `CN1C(=O)c2c(nn(Cc3ccc(-c4cccc(F)n4)cc3)c2Nc2ccccc2)N2C1=N[C@@H]1CCC[C@@H]12.O=S(=O)(O)c1cccc2c(S(=O)(=O)O)cccc12` [Napadisylate Salt 1] the figure was 1; with `CN1C(=O)c2c(nn(Cc3ccc(-c4cccc(F)n4)cc3)c2Nc2ccccc2)N2C1=N[C@@H]1CCC[C@@H]12.O=C(O)CCCCC(=O)O` [Adipate Salt 3], 4-5; with `CN1C(=O)c2c(nn(Cc3ccc(-c4cccc(F)n4)cc3)c2Nc2ccccc2)N2C1=N[C@@H]1CCC[C@@H]12.CN1C(=O)c2c(nn(Cc3ccc(-c4cccc(F)n4)cc3)c2Nc2ccccc2)N2C1=N[C@@H]1CCC[C@@H]12.O=C(O)CCCCC(=O)O` [Adipate Salt 2], 4-5. The same measure, in the same setting: with `CN1C(=O)c2c(nn(Cc3ccc(-c4cccc(F)n4)cc3)c2Nc2ccccc2)N2C1=N[C@@H]1CCC[C@@H]12.O=C(O)c1ccncc1` [Isonicotinate Salt 1] the figure was 5; with `CCCCCCCCCCCCCCCC(=O)O.CN1C(=O)c2c(nn(Cc3ccc(-c4cccc(F)n4)cc3)c2Nc2ccccc2)N2C1=N[C@@H]1CCC[C@@H]12` [Palmitate Salt 1], 5-6. `CN1C(=O)c2c(nn(Cc3ccc(-c4cccc(F)n4)cc3)c2Nc2ccccc2)N2C1=N[C@@H]1CCC[C@@H]12.O=C(O)CCC(=O)O` [Succinate Salt 2] returned a pH of 4. `CN1C(=O)c2c(nn(Cc3ccc(-c4cccc(F)n4)cc3)c2Nc2ccccc2)N2C1=N[C@@H]1CCC[C@@H]12.CS(=O)(=O)O` [Mesylate Salt 1] had a pH of 5. With `CN1C(=O)c2c(nn(Cc3ccc(-c4cccc(F)n4)cc3)c2Nc2ccccc2)N2C1=N[C@@H]1CCC[C@@H]12.O=P(O)(O)O` [Phosphate Salt Control], the pH was determined as 5. On the same count and under the same terms, to `CN1C(=O)c2c(nn(Cc3ccc(-c4cccc(F)n4)cc3)c2Nc2ccccc2)N2C1=N[C@@H]1CCC[C@@H]12.CN1C(=O)c2c(nn(Cc3ccc(-c4cccc(F)n4)cc3)c2Nc2ccccc2)N2C1=N[C@@H]1CCC[C@@H]12.O=C(O)/C=C/C(=O)O` [Fumarate Salt 1] belongs 2.

As for `CN1C(=O)c2c(nn(Cc3ccc(-c4cccc(F)n4)cc3)c2Nc2ccccc2)N2C1=N[C@@H]1CCC[C@@H]12.O=C(O)c1ccccc1` [Benzoate Salt 1], the pH was 5. For the compound `CN1C(=O)c2c(nn(Cc3ccc(-c4cccc(F)n4)cc3)c2Nc2ccccc2)N2C1=N[C@@H]1CCC[C@@H]12.O=C(O)c1cccnc1` [Nicotinate Salt 1], the pH was 5. For the compound `CN1C(=O)c2c(nn(Cc3ccc(-c4cccc(F)n4)cc3)c2Nc2ccccc2)N2C1=N[C@@H]1CCC[C@@H]12.O=C(O)CCC(=O)O` [Succinate Salt 1], the pH turned out to be 4. Turning to `CN1C(=O)c2c(nn(Cc3ccc(-c4cccc(F)n4)cc3)c2Nc2ccccc2)N2C1=N[C@@H]1CCC[C@@H]12.O=C(O)C(Cl)Cl` [Dichloroacetate Salt 1], the pH is recorded as 4-5. For the compound `CN1C(=O)c2c(nn(Cc3ccc(-c4cccc(F)n4)cc3)c2Nc2ccccc2)N2C1=N[C@@H]1CCC[C@@H]12.O=C(O)C(O)c1ccccc1` [Mandelate Salt 1], the pH was found to be 2.

`CN1C(=O)c2c(nn(Cc3ccc(-c4cccc(F)n4)cc3)c2Nc2ccccc2)N2C1=N[C@@H]1CCC[C@@H]12.O=C(O)c1ccccc1O` [Salicylate Salt 2]: the pH is 4-5. The same measure, in the same setting: with `CN1C(=O)c2c(nn(Cc3ccc(-c4cccc(F)n4)cc3)c2Nc2ccccc2)N2C1=N[C@@H]1CCC[C@@H]12.Cl` [HCl Salt 2] the figure was 4-5; with `CCC(=O)O.CN1C(=O)c2c(nn(Cc3ccc(-c4cccc(F)n4)cc3)c2Nc2ccccc2)N2C1=N[C@@H]1CCC[C@@H]12` [Propionate Salt 1], 5; with `CN1C(=O)c2c(nn(Cc3ccc(-c4cccc(F)n4)cc3)c2Nc2ccccc2)N2C1=N[C@@H]1CCC[C@@H]12.Cl` [HCl Salt 1], 4. For the compound `CN1C(=O)c2c(nn(Cc3ccc(-c4cccc(F)n4)cc3)c2Nc2ccccc2)N2C1=N[C@@H]1CCC[C@@H]12.O=C(O)c1ccc2ccccc2c1O` [Xinafoate Salt 2], the pH was determined as 7. As for `CC1(C)C2CCC1(CS(=O)(=O)O)C(=O)C2.CN1C(=O)c2c(nn(Cc3ccc(-c4cccc(F)n4)cc3)c2Nc2ccccc2)N2C1=N[C@@H]1CCC[C@@H]12` [Camsylate Salt 2], the pH turned out to be 1.

The same data set, now with this note: pH of the filtrated solution, listed as 4-acetamido-benzoate Salt 1.
For `CC(=O)Nc1ccc(C(=O)O)cc1.CN1C(=O)c2c(nn(Cc3ccc(-c4cccc(F)n4)cc3)c2Nc2ccccc2)N2C1=N[C@@H]1CCC[C@@H]12` [Acetamido Benzoate Salt 1], the pH stood at 5.

The same data set, now with this note: pH of the filtrated solution, listed as 4-acetamido-benzoate Salt 2.
`CC(=O)Nc1ccc(C(=O)O)cc1.CN1C(=O)c2c(nn(Cc3ccc(-c4cccc(F)n4)cc3)c2Nc2ccccc2)N2C1=N[C@@H]1CCC[C@@H]12` [Acetamido Benzoate Salt 2]: the pH stood at 4.
